Measured values: US8673894B2 (Hoffmann-La Roche Inc., priority 2010, dated 2014)
Structures can show the parent of a compound that is named as a salt.

What was measured:
[1] = target: T1, endogenous cellular BACE2 (Rattus norvegicus, UniProt Q6IE75); assay: Assay for BACE inhibition by measuring cellular TMEM27 cleavage; assay type: cell-based; details: INS-TMEM27 (INS1e-derived) cells, shed human TMEM27 in supernatant by ELISA
T1 construct: endogenous cellular BACE2 in the Ins1e rat cell line; endogenous in cells; host or cells: INS-TMEM27 (INS1e-derived rat insulinoma cell line with doxycycline-inducible full-length human TMEM27)
T1 sequence (Q6IE75 63-514): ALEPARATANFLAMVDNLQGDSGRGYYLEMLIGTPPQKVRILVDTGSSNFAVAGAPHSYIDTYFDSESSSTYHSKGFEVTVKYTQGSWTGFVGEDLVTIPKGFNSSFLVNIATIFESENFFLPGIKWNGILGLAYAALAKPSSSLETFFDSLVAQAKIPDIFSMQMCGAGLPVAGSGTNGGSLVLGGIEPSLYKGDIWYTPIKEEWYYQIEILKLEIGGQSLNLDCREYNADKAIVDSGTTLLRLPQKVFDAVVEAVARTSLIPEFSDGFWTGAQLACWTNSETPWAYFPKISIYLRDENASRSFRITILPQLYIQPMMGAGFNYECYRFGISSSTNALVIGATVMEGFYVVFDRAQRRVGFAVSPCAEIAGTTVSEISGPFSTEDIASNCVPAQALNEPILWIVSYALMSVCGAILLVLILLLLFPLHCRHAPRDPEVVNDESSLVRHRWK
From the text: Assay for BACE Inhibition by Measuring Cellular TMEM27 Cleavage:
The assay uses the principle of inhibition of human TMEM27 cleavage by endogenous cellular BACE2 in the Ins1e rat cell line and shedding from the cell surface into the culture medium, followed by detection in an ELISA assay. Inhibition of BACE2 prevents the cleavage and shedding in a dose-dependent manner.
The stable cell line “INS-TMEM27” represents an INS1e-derived cell line with inducible expression (using the TetOn system) of full-length hTMEM27 in a doxycycline-dependent manner. The cells are cultured throughout the experiment in RPMI1640+ Glutamax (Invitrogen) Penicillin/Streptomycin, 10% Fetal bovine serum, […], […], 100 micrograms/ml G418 and 100 microgram/ml hygromycin and are grown inadherent culture at 37° C. in a standard CO2 cell culture incubator.
INS-TMEM27 cells are seeded in 96-well plates. After 2 days in culture, BACE2 inhibitor is added in a range of concentrations as required by the assay and after a further two hours, doxycycline is added to a final concentration of 500 ng/ml. The cells are incubated for a further 46 hours and the supernatant harvested for detection of shed TMEM27.
An ELISA assay (using a pair of mouse anti-human-TMEM27 antibodies, raised against the extracellular domain of TMEM27) is used for detection of TMEM27 in the culture medium. An EC50 for BACE2 inhibition is calculated using the ELISA readout for each inhibitor concentration with standard curve-fitting software such as XLFit for the Excel spreadsheet program.

[2] = system: Aβ40; assay: Cellular Aβ-lowering assay; assay type: cell-based; details: HEK293 cells stably expressing human APP695, Aβ40 in supernatant by ELISA after 18-20 hrs; read-out: Cellular assay Abeta40 IC50
Description: Cellular Aβ-Lowering Assay:
Human HEK293 cells which are stably transfected with a vector expressing a cDNA of the human APP wt gene (APP695) were used to assess the potency of the compounds in a cellular assay. The cells were seeded in 96-well microtiter plates in cell culture medium (Iscove, plus 10% (v/v) fetal bovine serum, glutamine, penicillin/streptomycin) to about 80% confluence and the compounds were added at a 10× concentration in 1/10 volume of medium without FCS containing 8% DMSO (final concentration of DMSO was kept at 0.8% v/v). After 18-20 hrs incubation at 37° C. and 5% CO2 in a humidified incubator the culture supernatant was harvested for the determination of Aβ40 concentrations. 96well ELISA plates (e.g., Nunc MaxiSorb) were coated with monoclonal antibody which specifically recognize the C-terminal end of Aβ40 (Brockhaus et al., NeuroReport 9, 1481-1486; 1998). After blocking of non-specific binding sites with e.g. 1% BSA and washing, the culture supernatants were added in suitable dilutions together with a horseradish peroxidase-coupled Aβ detection antibody (e.g., antibody 4G8, Senetek, Maryland Heights, Mo.) and incubated for 5 to 7 hrs. Subsequently the wells of the microtiter plate were washed extensively with Tris-buffered saline containing 0.05% Tween 20 and the assay was developed with tetramethylbenzidine/H2O2 in citric acid buffer. After stopping the reaction with one volume 1 N H2SO4 the reaction was measured in an ELISA reader at 450 nm wavelength. The concentrations of Aβ in the culture supernatants were calculated from a standard curve obtained with known amounts of pure Aβ peptide.

Row | Compound | IC50 [1] [nM] | IC50 [2] [nM]
1 | NC1=N[C@@]2(c3cccc(NC(=O)c4ccc(Cl)cn4)c3)C[C@H]2COC1 (racemic) [Example 3, 5-Chloro-pyridine-2-carboxylic acid [3-((1SR,7RS)-3-amino-5-oxa-2-aza-bicyclo[5.1.0]oct-2-en-1-yl)-phenyl]-amide] | 245 | 34
2 | NC1=N[C@@]2(c3cccc(NC(=O)c4ccc(OCC(F)(F)F)cn4)c3)C[C@H]2COC1 (racemic) [Example 4, 5-(2,2,2-Trifluoro-ethoxy)-pyridine-2-carboxylic acid [3-((1SR,7RS)-3-amino-5-oxa-2-aza-bicyclo[5.1.0]oct-2-en-1-yl)-phenyl]-amide] | 8900 | 630
3 | NC1=N[C@@]2(c3cccc(NC(=O)c4ncc(C(F)(F)F)cc4Cl)c3)C[C@H]2COC1 (stereo in doubt) [Example 51, 3-Chloro-5-trifluoromethyl-pyridine-2-carboxylic acid [3-((R)-3-amino-5-oxa-2-aza-bicyclo[5.1.0]oct-2-en-1-yl)-phenyl]-amide; salt with trifluoroacetic acid] | 8590 | 100
4 | C[C@@]1(c2cc(NC(=O)c3ccc(Cl)cn3)ccc2F)CCOCC(N)=N1 [Example 5, 5-Chloro-pyridine-2-carboxylic acid [3-((S)-3-amino-5-methyl-2,5,6,7-tetrahydro-[1,4]oxazepin-5-yl)-4-fluoro-phenyl]-amide formate] | 0.885 | 0.9
5 | C[C@@]1(c2cc(NC(=O)c3ccccn3)ccc2F)CCOCC(N)=N1 [Example 7, Pyridine-2-carboxylic acid [3-((S)-3-amino-5-methyl-2,5,6,7-tetrahydro-[1,4]oxazepin-5-yl)-4-fluoro-phenyl]-amide] | 1.45 | 16
6 | C[C@@]1(c2cc(NC(=O)c3ccc(F)cn3)ccc2F)CCOCC(N)=N1 [Example 9] | 10 | 1.6
7 | CC[C@@]1(c2cc(NC(=O)c3ccc(F)cn3)ccc2F)CCOCC(N)=N1 [Example 13, 5-Fluoro-pyridine-2-carboxylic acid [3-((S)-3-amino-5-ethyl-2,5,6,7-tetrahydro-[1,4]oxazepin-5-yl)-4-fluoro-phenyl]-amide] | 44 | 250
8 | CC[C@@]1(c2cc(NC(=O)c3ncc(Cl)cc3Cl)ccc2F)CCOCC(N)=N1 [Example 15, 3,5-Dichloro-pyridine-2-carboxylic acid [3-((S)-3-amino-5-ethyl-2,5,6,7-tetrahydro-[1,4]oxazepin-5-yl)-4-fluoro-phenyl]-amide] | 38 | 880
9 | C[C@@]1(c2cc(NC(=O)c3ncc(C(F)(F)F)cc3Cl)ccc2F)CCOCC(N)=N1 [Example 16, 3-Chloro-5-trifluoromethyl-pyridine-2-carboxylic acid [3-((S)-3-amino-5-methyl-2,5,6,7-tetrahydro-[1,4]oxazepin-5-yl)-4-fluoro-phenyl]-amide] | 13.5 | 14
10 | C[C@]1(c2cc(NC(=O)c3ccc(Cl)cn3)ccc2F)N=C(N)COCC1(F)F [Example 26, (R)-N-(3-(3-amino-6,6-difluoro-5-methyl-2,5,6,7-tetrahydro-1,4-oxazepin-5-yl)-4-fluorophenyl)-5-chloropicolinamide] |  | 1.3
11 | C[C@@]1(c2cc(NC(=O)c3ccc(Cl)cn3)ccc2F)C[C@@H](c2ccccc2)OCC(N)=N1 [Example 69] |  | 5070

Further lines, results first:

Row | IC50 [1] [nM] | IC50 [2] [nM] | Compound
12 | > 10000 | 2200 | NC1=N[C@@]2(c3cc(NC(=O)c4ccc(OCC(F)(F)F)cn4)ccc3F)C[C@H]2COC1 (racemic) [Example 2, 5-(2,2,2-Trifluoro-ethoxy)-pyridine-2-carboxylic acid [3-((1SR,7RS)-3-amino-5-oxa-2-aza-bicyclo[5.1.0]oct-2-en-1-yl)-4-fluoro-phenyl]-amide]
13 | 3.6 | 36 | C[C@@]1(c2cc(NC(=O)c3ncccc3F)ccc2F)CCOCC(N)=N1 [Example 6, 3-Fluoro-pyridine-2-carboxylic acid [3-((S)-3-amino-5-methyl-2,5,6,7-tetrahydro-[1,4]oxazepin-5-yl)-4-fluoro-phenyl]-amide formate]
14 | 1.8 | 2.5 | C[C@@]1(c2cc(NC(=O)c3ncc(Cl)cc3Cl)ccc2F)CCOCC(N)=N1 [Example 8, 3,5-Dichloro-pyridine-2-carboxylic acid [3-((S)-3-amino-5-methyl-2,5,6,7-tetrahydro-[1,4]oxazepin-5-yl)-4-fluoro-phenyl]-amide]
15 | 1.6 | 1.1 | CC1(C)C[C@@](C)(c2cc(NC(=O)c3ccc(Cl)cn3)ccc2F)N=C(N)CO1 [Example 10, 5-Chloro-pyridine-2-carboxylic acid [3-((S)-3-amino-5,7,7-trimethyl-2,5,6,7-tetrahydro-[1,4]oxazepin-5-yl)-4-fluoro-phenyl]-amide]
16 | 2 | 2.1 | CC1(C)C[C@@](C)(c2cc(NC(=O)c3ccc(OC(F)F)cn3)ccc2F)N=C(N)CO1 [Example 11, 5-Difluoromethoxy-pyridine-2-carboxylic acid [3-((S)-3-amino-5,7,7-trimethyl-2,5,6,7-tetrahydro-[1,4]oxazepin-5-yl)-4-fluoro-phenyl]-amide]
17 | 120 | 9 | C[C@@]1(c2cc(NC(=O)c3ccc(OCC(F)(F)F)cn3)ccc2F)CCOCC(N)=N1 [Example 12, 5-(2,2,2-Trifluoro-ethoxy)-pyridine-2-carboxylic acid [3-((S)-3-amino-5-methyl-2,5,6,7-tetrahydro-[1,4]oxazepin-5-yl)-4-fluoro-phenyl]-amide]
18 | 69.5 | 93 | CC[C@@]1(c2cc(NC(=O)c3ccc(Cl)cn3)ccc2F)CCOCC(N)=N1 [Example 14, 5-Chloro-pyridine-2-carboxylic acid [3-((S)-3-amino-5-ethyl-2,5,6,7-tetrahydro-[1,4]oxazepin-5-yl)-4-fluoro-phenyl]-amide]
19 | 400 | 920 | C[C@@]1(c2cc(NC(=O)C3(C(F)(F)F)CC3)ccc2F)CCOCC(N)=N1 [Example 17, 1-Trifluoromethyl-cyclopropanecarboxylic acid [3-((S)-3-amino-5-methyl-2,5,6,7-tetrahydro-[1,4]oxazepin-5-yl)-4-fluoro-phenyl]-amide]
20 | 120 | 22 | CC1(C)C[C@@](C)(c2cc(NC(=O)c3ccc(OCC(F)(F)F)cn3)ccc2F)N=C(N)CO1 [Example 18, 5-(2,2,2-Trifluoro-ethoxy)-pyridine-2-carboxylic acid [3-((S)-3-amino-5,7,7-trimethyl-2,5,6,7-tetrahydro-[1,4]oxazepin-5-yl)-4-fluoro-phenyl]-amide]
21 | 56 | 440 | CC1(C)C[C@@](C)(c2cc(NC(=O)C3CC3(F)F)ccc2F)N=C(N)CO1 (stereo partly drawn) [Example 19, 2,2-Difluoro-cyclopropanecarboxylic acid [3-((S)-3-amino-5,7,7-trimethyl-2,5,6,7-tetrahydro-[1,4]oxazepin-5-yl)-4-fluoro-phenyl]-amide]
